CC1(C)O[C@H]2CC(=O)OC[C@]23[C@H]2CC[C@@]4(C)[C@H](c5ccoc5)OC(=O)[C@H]5O[C@]54[C@]2(C)C(=O)C[C@@H]13
solubility (mole fraction) (in acetone, 283.2 K): 0.00409
solubility (mole fraction) (in acetone, 288.2 K): 0.00454
solubility (mole fraction) (in acetone, 293.2 K): 0.00465
solubility (mole fraction) (in acetone, 298.2 K): 0.00471
solubility (mole fraction) (in acetone, 303.2 K): 0.00474
solubility (mole fraction) (in acetone, 308.2 K): 0.00497
solubility (mole fraction) (in acetone, 313.2 K): 0.00516
solubility (mole fraction) (in acetone, 318.2 K): 0.0055
solubility (mole fraction) (in methanol, 283.2 K): 7.08e-05
solubility (mole fraction) (in methanol, 288.2 K): 7.81e-05
solubility (mole fraction) (in methanol, 293.2 K): 9.2e-05
solubility (mole fraction) (in methanol, 298.2 K): 0.000101
solubility (mole fraction) (in methanol, 303.2 K): 0.00012
solubility (mole fraction) (in methanol, 308.2 K): 0.000137
solubility (mole fraction) (in methanol, 313.2 K): 0.000162
solubility (mole fraction) (in methanol, 318.2 K): 0.000192
solubility (mole fraction) (in water, 283.2 K): 1.17e-07
solubility (mole fraction) (in water, 288.2 K): 2.37e-07
solubility (mole fraction) (in water, 293.2 K): 4.77e-07
solubility (mole fraction) (in water, 298.2 K): 5.97e-07
solubility (mole fraction) (in water, 303.2 K): 8.3e-07
solubility (mole fraction) (in water, 308.2 K): 1.04e-06
solubility (mole fraction) (in water, 313.2 K): 1.17e-06
solubility (mole fraction) (in water, 318.2 K): 1.49e-06

Reference: BigSolDB 2.1
